In patent publication US20250197363A1, “THIADIAZOLE COMPOUND, AND PHARMACEUTICAL COMPOSITION FOR PREVENTING OR TREATING INFLAMMATORY DISEASES, INCLUDING SAME” (Cureverse Incorporated, priority 2022, published 2025) one finds EC50 data, which are given here for 14 compounds.

Broadly, the EC50 is the concentration giving half of the maximal effect.

This assay has as its target PPARδ ligand-binding domain (LBD) (Homo sapiens (Human), UniProt Q03181). As to the kind of experiment: PPARδ activation, TR-FRET coactivator peptide recruitment (enzyme activity EC50). In kind it is biochemical. The note with it: GST-PPARδ LBD 5 nM, read-out: Enzymatic activity (EC50). In general terms: Time-resolved FRET reads energy transfer from a long-lived donor to a nearby acceptor.

PPARδ ligand-binding domain (LBD), sequence (Q03181 211-439): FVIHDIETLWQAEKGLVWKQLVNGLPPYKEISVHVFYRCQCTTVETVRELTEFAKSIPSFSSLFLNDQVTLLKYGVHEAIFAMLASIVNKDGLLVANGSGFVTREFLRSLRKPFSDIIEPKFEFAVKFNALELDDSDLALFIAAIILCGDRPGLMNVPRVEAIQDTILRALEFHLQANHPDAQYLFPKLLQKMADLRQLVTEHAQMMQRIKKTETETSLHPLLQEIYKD

As to `Cc1cc(SCc2nnc(-c3ccc(F)c(Cl)c3)s2)ccc1OCC(=O)O` [Example 16, 2-(4-(((5-(3-chloro-4-fluorophenyl)-1,3,4-thiadiazol-2-yl)methyl)thio)-2-methylphenoxy)acetic acid], the EC50 came to 1.35 µM.

In the case of `Cc1cc(SCc2nnc(-c3ccc(C(F)(F)F)c(F)c3)s2)ccc1OC(C)(C)C(=O)O` [Example 21, 2-(4-(((5-(3-fluoro-4-(trifluoromethyl)phenyl)-1,3,4-thiadiazol-2-yl)methyl)thio)-2-methylphenoxy)-2-methylpropanoic acid], the EC50 came to 2.66 µM.

In the case of `Cc1cc(SCc2nnc(-c3ccc(C(F)(F)F)cc3)s2)ccc1OC(C)(C)C(=O)O` [Example 3, 2-methyl-2-(2-methyl-4-(((5-(4-(trifluoromethyl)phenyl)-1,3,4-thiadiazol-2-yl)methyl)thio)phenoxy)propanoic acid], the EC50 turned out to be 0.374 µM.

For `Cc1cc(SCc2nnc(-c3ccc(F)c(F)c3)s2)ccc1OC(C)C(=O)O` (centres unmarked) [Example 13, 2-(4-(((5-(3,4-difluorophenyl)-1,3,4-thiadiazol-2-yl)methyl)thio)-2-methylphenoxy)propanoic acid], the EC50 amounted to 6.16 µM.

Take `Cc1cc(SCc2nnc(-c3ccc(C(F)(F)F)cc3)s2)ccc1OCC(=O)NC#N` [Example 8, N-cyano-2-(2-methyl-4-(((5-(4-(trifluoromethyl)phenyl)-1,3,4-thiadiazol-2-yl)methyl)thio)phenoxy)acetamide]: the EC50 worked out at 0.504 µM.

Turning to `Cc1cc(SCc2nnc(-c3ccc(F)cc3)s2)ccc1OCC(=O)O` [Example 9, 2-(4-(((5-(4-fluorophenyl)-1,3,4-thiadiazol-2-yl)methyl)thio)-2-methylphenoxy)acetic acid], the EC50 was 2.44 µM.

Take `Cc1cc(SCc2nnc(-c3ccc(C(F)(F)F)cc3)s2)ccc1OC(C)C(=O)O` (centres unmarked) [Example 2, 2-(2-methyl-4-(((5-(4-(trifluoromethyl)phenyl)-1,3,4-thiadiazol-2-yl)methyl)thio)phenoxy)propanoic acid]: the EC50 was determined as 0.42 µM.

`Cc1ccc(-c2nnc(CSc3ccc(OC(C)(C)C(=O)O)c(C)c3)s2)cc1` [Example 24, 2-methyl-2-(2-methyl-4-(((5-(p-tolyl)-1,3,4-thiadiazol-2-yl)methyl)thio)phenoxy)propanoic acid]: the EC50 was 1.25 µM.

Consider `Cc1cc(SCc2nnc(-c3ccc(OC(F)(F)F)cc3)s2)ccc1OC(C)(C)C(=O)O` [Example 27, 2-methyl-2-(2-methyl-4-(((5-(4-(trifluoromethoxy)phenyl)-1,3,4-thiadiazol-2-yl)methyl)thio)phenoxy)propanoic acid], for which the EC50 was found to be 0.595 µM.

As to `Cc1cc(SCc2nnc(-c3ccc(OC(F)(F)F)cc3)s2)ccc1OCC(=O)O` [Example 25, 2-(2-methyl-4-(((5-(4-(trifluoromethoxy)phenyl)-1,3,4-thiadiazol-2-yl)methyl)thio)phenoxy)acetic acid], the 50% effective concentration (EC50) came out at 0.042 µM.

Consider `Cc1ccc(-c2nnc(CSc3ccc(OC(C)C(=O)O)c(C)c3)s2)cc1` (centres unmarked) [Example 23, 2-(2-methyl-4-(((5-(p-tolyl)-1,3,4-thiadiazol-2-yl)methyl)thio)phenoxy)propanoic acid], for which the EC50 turned out to be 5.7 µM.

As for `Cc1cc(SCc2nnc(-c3cc(F)c(F)c(F)c3)s2)ccc1OCC(=O)O` [Example 15, 2-(2-methyl-4-(((5-(3,4,5-trifluorophenyl)-1,3,4-thiadiazol-2-yl)methyl)thio)phenoxy)acetic acid], the EC50 is 4.01 µM.

For `Cc1cc(SCc2nnc(-c3ccc(OC(F)(F)F)cc3)s2)ccc1OC(C)C(=O)O` (centres unmarked) [Example 26, 2-(2-methyl-4-(((5-(4-(trifluoromethoxy)phenyl)-1,3,4-thiadiazol-2-yl)methyl)thio)phenoxy)propanoic acid], the EC50 is 1.24 µM.

As for `Cc1cc(SCc2nnc(-c3ccc(F)c(F)c3)s2)ccc1OCC(=O)O` [Example 12, 2-(4-(((5-(3,4-difluorophenyl)-1,3,4-thiadiazol-2-yl)methyl)thio)-2-methylphenoxy)acetic acid], the EC50 is 0.663 µM.
